From publication PMC7260283, “The Amino Terminus of LeuT Changes Conformation in an Environment Sensitive Manner” (Neurochemical Research, 2019)

Target: T1, wild type LeuT (Aquifex aeolicus, UniProt O67854)
T1 construct: gene snf; full-length, His-tagged, expressed in E. coli C41(DE3), purified in DDM; plasmid from Eric Gouaux
Assay: scintillation proximity assay, competition of cold leucine with [3H]leucine, YSi beads
Format: binding
Details: purified His-tagged protein; competitive with [3H]leucine

KI: 15.5 ± 2.4 nM
Structure (SMILES): CC(C)C[C@H](N)C(=O)O [leucine]
